“Also recorded” adds a separate entry of the source.
Legend:
[1] = biological target: T1, type-VI B porcine pancreatic α-amylase (Sus scrofa, UniProt P00690); experiment: α-amylase inhibition assay (starch substrate, DNS reagent); type: biochemical; details: porcine pancreatic enzyme, 25 °C, read-out: IC50 (mean ± SD) α-Amylase (converted)
T1 construct: performed using type-VI B porcine pancreatic α-amylase, with starch as a substrate; from tissue; host or cells: porcine pancreas
T1 sequence (P00690 16-511): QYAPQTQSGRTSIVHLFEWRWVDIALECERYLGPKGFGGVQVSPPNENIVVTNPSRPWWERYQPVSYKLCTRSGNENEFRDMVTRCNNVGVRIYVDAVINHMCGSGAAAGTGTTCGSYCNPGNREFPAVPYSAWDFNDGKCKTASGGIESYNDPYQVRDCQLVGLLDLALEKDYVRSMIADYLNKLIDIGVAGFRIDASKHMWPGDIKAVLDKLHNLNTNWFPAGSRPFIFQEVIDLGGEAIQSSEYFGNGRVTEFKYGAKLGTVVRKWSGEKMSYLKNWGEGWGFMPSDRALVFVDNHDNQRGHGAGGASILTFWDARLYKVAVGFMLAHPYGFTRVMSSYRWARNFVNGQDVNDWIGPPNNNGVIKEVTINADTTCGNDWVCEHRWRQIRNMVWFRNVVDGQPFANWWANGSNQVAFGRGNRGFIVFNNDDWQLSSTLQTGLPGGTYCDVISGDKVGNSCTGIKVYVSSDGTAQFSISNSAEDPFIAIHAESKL
Protocol: (§1) The in vitro enzyme inhibition assays for the two enzymes, i.e., α-glucosidase and α-amylase, were performed according to the previous studies.
The α-amylase inhibition activity was performed using type-VI B porcine pancreatic α-amylase, with starch as a substrate. The enzyme was dissolved in sodium phosphate buffer and the test compound was added at different concentrations. […] The reaction was terminated by adding a DNS reagent and kept in a boiling water bath for 5 min. The resulting mixture was diluted and absorbance was measured at 540 nm using a microplate spectrophotometer.

yeast α-glucosidase = yeast α-glucosidase inhibition assay (pNPG substrate); type: biochemical; details: yeast enzyme, 37 °C
Protocol: as §1
The yeast α-glucosidase inhibition assay was performed using pNPG as substrate. An amount of 100 µL of enzyme was then added to the mixture, and the reaction was incubated at 37 °C for 10 min. After adding 0.5 mM pNPG solution, the reaction continued at 37 °C for 20 min. The enzyme activity was determined by measuring the absorbance of the liberated p-nitrophenol at 405 nm using a microplate spectrophotometer. The results were expressed as a percentage of α-glucosidase inhibition, calculated using the formula “Inhibition (%) = (A control − A sample)/A control × 100”. The final results of the enzyme inhibition assay are represented as IC50 values which refers to the concentration required to block 50% of α-glucosidase activity under the test conditions.

HEK293 cells = type: cell-based; details: for cytotoxicity against HEK293 cell lines (in words): MTT, 48 h, 250, 500 and 1000 µg/mL, even at the highest concentration (1000 µg/mL)
Protocol: The Human Embryonic Kidney (HEK-293) cell lines were cultured in Dulbecco’s Modified Eagle Medium (DMEM) supplemented with 10% fetal bovine serum (FBS). The cells were maintained at 37 °C in a humidified atmosphere of 5% CO2. The adherent cells were grown to 70–80% confluency and then harvested by trypsinization (0.25%). The test compounds were dissolved in DMSO and used for all the experiments. DMSO (0.1%) was used as vehicle control and cells cultured in a complete medium without compound served as control.
Briefly, 5 × 10^3 cells (HEK293 cells) were seeded and allowed to adhere overnight. […] Post 48 h, the cells were exposed to MTT (5 mg/mL in phosphate-buffered saline). The formazan crystals were dissolved in DMSO and the absorption was measured at 570 nm using a microplate reader (Tecan Spark, Switzerland). The percentage viability of the cells was determined.

Structure (SMILES)	melting point [°C]	IC50 [1] [µM]	IC50 (mean ± SD) α-Glucosidase (yeast α-glucosidase)	cytotoxicity against HEK293 cell lines (in words) (HEK293 cells)	cell death (HEK293 cells; HEK293, MTT, 25 µg/mL)
COc1ccccc1/C=C/C(=O)c1ccc2c(c1)nc(-c1cc(OC)c(OC)c(OC)c1)n2C [Compound 7i]	176 to 178	52.8	33.20 ± 0.60 J·µg/mL		
COc1ccc(-c2nc3cc(C(=O)/C=C/c4ccccc4Cl)ccc3n2C)cc1OC [Compound 7a]	148 to 150	92.7	30.23 ± 0.14 µg·h/mL		
COc1ccc(-c2nc3cc(C(=O)/C=C/c4cc(OC)c(OC)c(OC)c4)ccc3n2C)cc1OC [Compound 7f]	127 to 129	76.4	28.75 ± 0.12 f µg/mL		
COc1ccc(/C=C/C(=O)c2ccc3c(c2)nc(-c2cc(OC)c(OC)c(OC)c2)n3C)cc1 [Compound 7j]	142 to 144	85.6	27.21 ± 0.36 e µg/mL		
COc1cc(-c2nc3cc(C(=O)/C=C/c4ccc(C)cc4)ccc3n2C)cc(OC)c1OC [Compound 7h]	168 to 170	68.9	36.22 ± 0.58 l µg/mL		
COc1ccc(/C=C/C(=O)c2ccc3c(c2)nc(-c2cc(OC)c(OC)c(OC)c2)n3C)cc1OC [Compound 7k]	137 to 139	84.4	29.30 ± 0.21 g µg/mL		
COc1ccc(/C=C/C(=O)c2ccc3c(c2)nc(-c2ccc(OC)c(OC)c2)n3C)cc1 [Compound 7d]	98 to 100	85	631.7 ± 12.5 µg·h/mL		
COc1ccc(-c2nc3cc(C(=O)/C=C/c4ccc(C)cc4)ccc3n2C)cc1OC [Compound 7b]		81	32.10 ± 0.96 i µg/mL	negligible cytotoxicity	
COc1ccccc1/C=C/C(=O)c1ccc2c(c1)nc(-c1ccc(OC)c(OC)c1)n2C [Compound 7c]	159 to 161	91.9	25.21 ± 0.13 c µg/mL		
COc1cc(-c2nc3cc(C(=O)/C=C/c4ccccc4Cl)ccc3n2C)cc(OC)c1OC [Compound 7g]	183 to 184	61.7	29.28 ± 0.35 g µg/mL		
COc1ccc(/C=C/C(=O)c2ccc3c(c2)nc(-c2ccc(OC)c(OC)c2)n3C)cc1OC [Compound 7e]		75.1	23.88 ± 0.55 b µg/mL	negligible cytotoxicity	
CO[C@@]12[C@H](COC(N)=O)C3=C(C(=O)C(C)=C(N)C3=O)N1C[C@@H]1N[C@@H]12 [Mitomycin, reference compound]					around 60%
COc1cc(/C=C/C(=O)c2ccc3c(c2)nc(-c2cc(OC)c(OC)c(OC)c2)n3C)cc(OC)c1OC [Compound 7l, (E)-1-(1-methyl-2-(3,4,5-trimethoxyphenyl)-1H-benzo[d]imidazol-5-yl)-3-(3,4,5-trimethoxyphenyl)prop-2-en-1-one]		39.5	22.45 ± 0.36 a µg/mL	negligible cytotoxicity; also recorded: without exerting toxicity	

Source: article PMC11643225, “Novel Benzimidazole-Endowed Chalcones as α-Glucosidase and α-Amylase Inhibitors: An Insight into Structural and Computational Studies” (Molecules, 2024)
